According to ChEMBL document CHEMBL4622854, “Synthetic bioactive olivetol-related amides: The influence of the phenolic group in cannabinoid receptor activity” (Bioorg Med Chem, 2020):
The source made the active and inactive calls. No cut-off for these calls is given here.

Columns and labels:
Homo sapiens = species on record: Homo sapiens; assay: Selectivity ratio of Ki for displacement of [3H]-CP55940 from human recombinant CB1 receptor expressed in HEK293 cell membrane to Ki for displacement of [3H]-CP55940 from human recombinant CB2 receptor expressed in HEK293 cell membrane
Cannabinoid receptor 2 [1] = molecular target: T1, Cannabinoid receptor 2 (Homo sapiens, UniProt P34972); assay: Displacement of [3H]-CP55940 from human recombinant CB2 receptor expressed in HEK cell membrane; assay type: cell membranes
Cannabinoid receptor 1 [2] = molecular target: T2, Cannabinoid receptor 1 (Homo sapiens, UniProt P21554); assay: Displacement of [3H]-CP55940 from human recombinant CB1 receptor expressed in HEK cell membrane; assay type: cell membranes
Cannabinoid receptor 1 [3] = molecular target: T2, Cannabinoid receptor 1; assay: Agonist activity at human CB1 receptor expressed in CHO cell membrane assessed as stimulation of [35S]-GTPgammaS binding incubated for 1 hr by liquid scintillation counting assay relative to control
Cannabinoid receptor 2 [4] = molecular target: T1, Cannabinoid receptor 2; assay: Agonist activity at human CB2 receptor at 10 uM expressed in CHO cell membrane assessed as stimulation of [35S]-GTPgammaS binding incubated for 1 hr by liquid scintillation counting assay relative to control
Cannabinoid receptor 2 [5] = molecular target: T1, Cannabinoid receptor 2; assay: Agonist activity at human CB2 receptor at 1 nM to 1 uM expressed in CHO cell membrane assessed as stimulation of [35S]-GTPgammaS binding incubated for 1 hr by liquid scintillation counting assay
Cannabinoid receptor 2 [6] = molecular target: T1, Cannabinoid receptor 2; assay: Antagonist activity at human CB2 receptor expressed in CHO cell membrane assessed as inhibition of CP55940-induced [35S]-GTPgammaS binding incubated for 1 hr by liquid scintillation counting
Mus musculus [7] = assay: Antinociceptive activity in formalin-induced nociception pain CD-1 mouse model assessed as reduction in pain related behavior in late phase at 6 mg/kg, ip pretreated with compound 10 mins prior to formalin induction measured after 20 to 60 mins by formalin test; assay type: functional, organism-based
Mus musculus [8] = species on record: Mus musculus; assay: Antinociceptive activity in formalin-induced nociception pain CD-1 mouse model assessed as reduction in pain related behavior pretreated with compound 10 mins prior to formalin induction co-treated with AM630 measured until 60 mins by formalin test; assay type: functional, organism-based
Mus musculus [9] = species on record: Mus musculus; assay: Antinociceptive activity in formalin-induced nociception pain CD-1 mouse model assessed as reduction in pain related behavior pretreated with compound 10 mins prior to formalin induction co-treated with AM251 measured until 60 mins by formalin test; assay type: functional, organism-based
Cannabinoid receptor 2 [10] = molecular target: T1, Cannabinoid receptor 2; assay: Agonist activity at human CB2 receptor expressed in CHO cell membrane assessed as inhibition of [35S]-GTPgammaS binding incubated for 1 hr by liquid scintillation counting assay; assay type: functional, cell membranes
Cannabinoid receptor 1 [11] = molecular target: T2, Cannabinoid receptor 1; assay: Agonist activity at human CB1 receptor expressed in CHO cell membrane assessed as stimulation of [35S]-GTPgammaS binding incubated for 1 hr by liquid scintillation counting assay; assay type: functional, cell membranes
Mus musculus [12] = assay: Antinociceptive activity in formalin-induced nociception pain CD-1 mouse model assessed as reduction in pain related behavior in late phase at 1 to 3 mg/kg, ip pretreated with compound 10 mins prior to formalin induction measured after 20 to 60 mins by formalin test; assay type: functional, organism-based
Cannabinoid receptor 2 [13] = molecular target: T1, Cannabinoid receptor 2; assay: Agonist activity at human CB2 receptor expressed in CHO cell membrane assessed as stimulation of [35S]-GTPgammaS binding incubated for 1 hr by liquid scintillation counting assay relative to control
[14] = molecular target: T3, Transient receptor potential cation channel subfamily V member 1 (Homo sapiens, UniProt Q8NER1); assay: Antagonist activity at human TRPV1 expressed in HEK293 cells assessed as ionomycin-induced increase of calcium influx at 4 uM preincubated for 5 mins by Fluo-4AM dye based fluorescence assay relative to control; assay type: cell-based
[15] = molecular target: T3, Transient receptor potential cation channel subfamily V member 1; assay: Activation of human TRPV1 expressed in HEK293 cells assessed as calcium influx preincubated for 5 mins by Fluo-4AM dye based fluorescence assay; assay type: cell-based
Mus musculus [16] = assay: Antinociceptive activity in formalin-induced nociception pain CD-1 mouse model assessed as reduction in pain related behavior in late phase through ip pretreated with compound 10 mins prior to formalin induction measured after 20 to 60 mins by formalin test; assay type: functional, organism-based
[17] = molecular target: T4, Transient receptor potential cation channel subfamily A member 1 (Rattus norvegicus, UniProt Q6RI86); assay: Antagonist activity at rat recombinant TRPA1 expressed in HEK293 cells assessed as AITC-induced increase of calcium influx preincubated for 5 mins by Fluo-4AM dye based fluorescence assay; assay type: cell-based
[18] = molecular target: T4, Transient receptor potential cation channel subfamily A member 1; assay: Activation of rat recombinant TRPA1 expressed in HEK293 cells assessed as calcium influx preincubated for 5 mins by Fluo-4AM dye based fluorescence assay; assay type: cell-based
Mus musculus [19] = assay: Antinociceptive activity in formalin-induced nociception pain CD-1 mouse model assessed as reduction in pain related behavior in first phase at 4 mg/kg, ip pretreated with compound 10 mins prior to formalin induction measured from 0 to 10 mins by formalin test; assay type: functional, organism-based
HepG2 = assay: Antiproliferation activity against human HepG2 cells assessed as reduction in cell viability at 1 uM incubated for 24 to 72 hrs by MTT assay; assay type: functional, cell-based
[20] = molecular target: T3, Transient receptor potential cation channel subfamily V member 1; assay: Antagonist activity at human TRPV1 expressed in HEK293 cells assessed as capsaicin-induced increase of calcium influx preincubated for 5 mins by Fluo-4AM dye based fluorescence assay; assay type: cell-based
[21] = molecular target: Transient receptor potential cation channel subfamily A member 1 (Rattus norvegicus) (UniProt Q6RI86); assay: Antagonist activity at rat recombinant TRPA1 expressed in HEK293 cells assessed as AITC-induced increase of calcium influx at 100 uM preincubated for 5 mins by Fluo-4AM dye based fluorescence assay relative to control; assay type: cell-based
Sequence of Transient receptor potential cation channel subfamily A member 1 (Rattus norvegicus) (Q6RI86 whole entry): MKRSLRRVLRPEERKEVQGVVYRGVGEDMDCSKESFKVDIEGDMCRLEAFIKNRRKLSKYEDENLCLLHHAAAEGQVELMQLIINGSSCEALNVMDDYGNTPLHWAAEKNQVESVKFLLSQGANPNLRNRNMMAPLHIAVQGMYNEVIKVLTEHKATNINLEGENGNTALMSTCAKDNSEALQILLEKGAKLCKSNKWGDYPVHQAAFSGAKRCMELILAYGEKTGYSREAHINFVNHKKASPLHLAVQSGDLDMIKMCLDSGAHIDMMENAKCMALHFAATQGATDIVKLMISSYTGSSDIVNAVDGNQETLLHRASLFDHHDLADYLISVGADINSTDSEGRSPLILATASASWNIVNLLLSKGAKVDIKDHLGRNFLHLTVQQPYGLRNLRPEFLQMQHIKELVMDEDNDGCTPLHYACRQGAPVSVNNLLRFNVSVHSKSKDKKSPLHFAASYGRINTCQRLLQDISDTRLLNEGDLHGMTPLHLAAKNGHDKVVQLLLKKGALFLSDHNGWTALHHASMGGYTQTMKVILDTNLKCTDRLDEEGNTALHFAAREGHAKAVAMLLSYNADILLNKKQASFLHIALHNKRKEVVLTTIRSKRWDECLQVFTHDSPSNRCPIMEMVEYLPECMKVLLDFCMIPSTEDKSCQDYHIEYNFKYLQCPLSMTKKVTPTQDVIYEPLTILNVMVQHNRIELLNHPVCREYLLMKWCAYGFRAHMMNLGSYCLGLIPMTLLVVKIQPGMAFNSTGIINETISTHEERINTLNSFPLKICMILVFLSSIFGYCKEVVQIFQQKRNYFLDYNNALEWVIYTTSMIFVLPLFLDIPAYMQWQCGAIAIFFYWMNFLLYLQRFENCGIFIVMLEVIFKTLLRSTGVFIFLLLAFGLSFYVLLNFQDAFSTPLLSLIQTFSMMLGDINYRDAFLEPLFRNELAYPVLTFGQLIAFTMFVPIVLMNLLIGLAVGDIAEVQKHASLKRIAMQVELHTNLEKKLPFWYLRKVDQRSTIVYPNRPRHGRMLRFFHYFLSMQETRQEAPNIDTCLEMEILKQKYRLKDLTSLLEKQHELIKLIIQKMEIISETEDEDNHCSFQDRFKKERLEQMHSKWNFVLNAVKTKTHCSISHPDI

T2 sequence (P21554 whole entry): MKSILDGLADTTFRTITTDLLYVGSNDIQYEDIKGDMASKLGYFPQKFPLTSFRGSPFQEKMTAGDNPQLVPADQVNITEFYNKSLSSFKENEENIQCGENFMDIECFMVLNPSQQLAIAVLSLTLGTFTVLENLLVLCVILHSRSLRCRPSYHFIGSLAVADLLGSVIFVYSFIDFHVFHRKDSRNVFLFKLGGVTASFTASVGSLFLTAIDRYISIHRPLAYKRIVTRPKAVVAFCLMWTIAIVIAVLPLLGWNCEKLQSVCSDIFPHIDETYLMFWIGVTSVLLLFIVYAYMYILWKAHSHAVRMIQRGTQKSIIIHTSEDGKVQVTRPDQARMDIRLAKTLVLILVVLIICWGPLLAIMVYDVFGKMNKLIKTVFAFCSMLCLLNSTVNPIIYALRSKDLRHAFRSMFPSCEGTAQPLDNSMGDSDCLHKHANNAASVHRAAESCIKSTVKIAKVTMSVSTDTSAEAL
T3 sequence (Q8NER1 whole entry): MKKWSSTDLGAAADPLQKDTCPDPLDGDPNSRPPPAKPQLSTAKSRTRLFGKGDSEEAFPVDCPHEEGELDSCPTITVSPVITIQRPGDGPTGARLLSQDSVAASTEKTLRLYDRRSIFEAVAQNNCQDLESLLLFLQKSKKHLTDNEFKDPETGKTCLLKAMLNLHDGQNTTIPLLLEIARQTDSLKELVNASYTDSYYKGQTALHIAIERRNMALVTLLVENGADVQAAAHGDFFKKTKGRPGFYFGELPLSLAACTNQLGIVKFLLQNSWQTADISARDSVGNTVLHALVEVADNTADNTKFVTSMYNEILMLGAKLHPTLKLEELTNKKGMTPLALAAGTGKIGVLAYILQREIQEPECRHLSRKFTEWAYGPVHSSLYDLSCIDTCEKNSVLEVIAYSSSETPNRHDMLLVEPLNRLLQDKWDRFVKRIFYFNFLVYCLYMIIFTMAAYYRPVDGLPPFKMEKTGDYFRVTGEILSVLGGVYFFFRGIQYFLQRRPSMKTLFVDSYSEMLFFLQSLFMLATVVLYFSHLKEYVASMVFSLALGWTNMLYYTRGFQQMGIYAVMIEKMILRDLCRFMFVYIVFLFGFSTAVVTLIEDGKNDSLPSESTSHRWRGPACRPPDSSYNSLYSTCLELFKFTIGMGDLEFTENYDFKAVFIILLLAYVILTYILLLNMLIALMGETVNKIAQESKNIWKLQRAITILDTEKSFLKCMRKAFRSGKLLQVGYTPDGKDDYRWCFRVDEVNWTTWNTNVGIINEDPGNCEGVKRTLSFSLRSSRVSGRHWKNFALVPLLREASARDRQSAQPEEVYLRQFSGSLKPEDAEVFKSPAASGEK
T1 sequence (P34972 whole entry): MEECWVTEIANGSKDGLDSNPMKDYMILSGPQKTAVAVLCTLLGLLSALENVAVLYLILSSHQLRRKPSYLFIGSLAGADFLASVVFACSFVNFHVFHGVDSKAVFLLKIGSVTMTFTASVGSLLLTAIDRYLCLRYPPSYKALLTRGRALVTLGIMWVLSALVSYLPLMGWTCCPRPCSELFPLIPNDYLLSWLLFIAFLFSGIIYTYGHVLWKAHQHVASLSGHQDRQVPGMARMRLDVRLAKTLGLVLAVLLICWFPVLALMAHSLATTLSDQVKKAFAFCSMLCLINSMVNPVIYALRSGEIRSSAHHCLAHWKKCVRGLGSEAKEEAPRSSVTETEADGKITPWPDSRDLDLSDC
T4 sequence (Q6RI86 whole entry): as the sequence (Q6RI86 whole entry) above

Row | SMILES | Selectivity ratio (Homo sapiens) | Ki (Cannabinoid receptor 2 [1]) | Ki (Cannabinoid receptor 1 [2]) | also measured
1 | CCCCCc1cc(O)cc(OCCCCCCCCCCC(=O)NC2CC2)c1 | 0.4 | – | – | –
2 | CCCCCc1cc(OC)cc(OCCCCCCCCCCC(=O)NCCO)c1 | 2.6 | 33.2 nM | 87.6 nM | –
3 | CCCCCCC(C)(C)c1cc(OC)cc(OCCCCCCCCCCC(=O)NC2CC2)c1 | 10.7 | 26.1 nM | 280 nM | –
4 | CCCCCCc1ccc(OC)cc1OCCCCCCCCCCC(=O)NCC1CC1 | 11.1 | 62.6 nM | 693 nM | –
5 | CCCCCc1cc(OC)cc(OCCCCCCCCCCC(=O)NC2CC2)c1 | 2.9 | 1.2 nM | 3.5 nM | Emax (Cannabinoid receptor 1 [3]): 62.7%; Emax (Cannabinoid receptor 2 [4]): -17.8%; Activity (Cannabinoid receptor 2 [5]): Active; Kb (Cannabinoid receptor 2 [6]): 37.8 nM; Activity (Mus musculus [7]): Active; Activity (Mus musculus [8]): inactive; Activity (Mus musculus [9]): inactive; EC50 (Cannabinoid receptor 2 [10]): 398 nM; EC50 (Cannabinoid receptor 1 [11]): 6.21 nM; Activity (Mus musculus [12]): inactive
6 | CCCCCc1cc(OC)cc(OCCCCCCCCCCC(=O)NC(CO)CO)c1 | 0.6 | 598 nM | 350 nM | –
7 | CCCCCCC(C)(C)c1cc(OC)cc(OCCCCCCCCCCC(=O)NCCO)c1 | 30 | 104 nM | 3160 nM | –
8 | CCCCCCC(C)(C)c1cc(OC)cc(OCCCCCCCCCCC(=O)NC(CO)CO)c1 | > 7.3 | 1370 nM | > 10000 nM | –
9 | C=CCNC(=O)CCCCCCCCCCOc1cc(CCCCC)cc(OC)c1 | 3.5 | 6.8 nM | 23.7 nM | –
10 | CCCCCc1cc(OCCCCCCCCCCC(=O)NC2CC2)cc(OC(C)C)c1 | 7.7 | 2.7 nM | 20.7 nM | –
11 | CCCCCc1cc(OCC)cc(OCCCCCCCCCCC(=O)NC2CC2)c1 | 1.8 | 6.7 nM | 11.7 nM | –
12 | CCCCCc1cc(OC)cc(OCCCCCCCC(=O)NCCO)c1 | 1.8 | 41.9 nM | 76.1 nM | –
13 | CCCCCc1cc(OC)cc(OCCCCCCCCCCC(=O)NCC(F)(F)F)c1 | 3.3 | 22.9 nM | 75.5 nM | –
14 | C=CCOc1cc(CCCCC)cc(OCCCCCCCCCCC(=O)NC2CC2)c1 | 2.9 | 4.7 nM | 13.6 nM | –
15 | CCCCCc1cccc(OCCCCCCCCCCC(=O)NC2CC2)c1 | 1.7 | 3.5 nM | 5.9 nM | Emax (Cannabinoid receptor 2 [13]): -13%; Emax (Cannabinoid receptor 1 [3]): 29.5%; Kb (Cannabinoid receptor 2 [6]): 78.2 nM; EC50 (Cannabinoid receptor 2 [10]): 1.28 nM; EC50 (Cannabinoid receptor 1 [11]): 31 nM
16 | CCCCCc1cc(OCCCC)cc(OCCCCCCCCCCC(=O)NC2CC2)c1 | 0.5 | 21.5 nM | 11.3 nM | –
17 | CCCCCc1cc(OC)cc(OCCCCCCCCCCC(=O)Nc2ccccc2)c1 | 2.7 | 309 nM | 845 nM | –
18 | CCCCCCC(C)(C)c1cc(OC)cc(OCCCCCCCC(=O)NC2CC2)c1 | 0.3 | 4.2 nM | 1.1 nM | Emax (Cannabinoid receptor 2 [13]): 28.3%; Emax (Cannabinoid receptor 1 [3]): 52.5%; Efficacy [14]: 29.4%; EC50 [15]: 120 nM; Activity (Mus musculus [16]): Dose-dependent effect; IC50 [17]: > 100000 nM; Activity (Mus musculus [8]): Active; Activity (Mus musculus [9]): inactive; EC50 [18]: 11100 nM; Activity (Mus musculus [19]): Active; Activity (HepG2): inactive; IC50 [20]: 800 nM; EC50 (Cannabinoid receptor 2 [10]): 1.16 nM; EC50 (Cannabinoid receptor 1 [11]): 15.1 nM; Efficacy [21]: 17.2%
19 | CCCCCc1cc(OC)cc(OCCCCCCCCCCC(=O)NCC2CC2)c1 | 28.9 | 10.3 nM | 297 nM | –
20 | CCCCCCc1ccc(OCCCCCCCCCCC(=O)NCC2CC2)cc1OC | 66.6 | 48.8 nM | 3250 nM | Emax (Cannabinoid receptor 2 [13]): -18.3%; Activity (Cannabinoid receptor 2 [5]): Active; Kb (Cannabinoid receptor 2 [6]): 30.6 nM; EC50 (Cannabinoid receptor 2 [10]): 174 nM
21 | CCCCCCC(C)(C)c1cc(OC)cc(OCCCCCCCCCCC(=O)NCC2CC2)c1 | 9.9 | 322 nM | 3190 nM | –
22 | CCCCCCC(C)(C)c1cc(OC)cc(OCCCCCCCC(=O)NCC(F)(F)F)c1 | 0.6 | 92.8 nM | 53.5 nM | –
23 | C=CCNC(=O)CCCCCCCOc1cc(OC)cc(C(C)(C)CCCCCC)c1 | 0.2 | 31.2 nM | 7.6 nM | –
24 | CCCCCCC(C)(C)c1cc(OC)cc(OCCCCCCCC(=O)NCCO)c1 | 0.7 | 129 nM | 89.1 nM | –
